Laboratory results taken from patent US20240199624A1, “COMPOUNDS, COMPOSITIONS, AND METHODS” (CHDI Foundation, Inc., priority 2022, published 2024).

Experiments:
[1] = P33 SPA counter assay (absence of enzyme); conditions: interference with detection system
Method: P33 SPA counter assay: This assay was used in the absence of enzyme to determine whether the test compound interferes with the detection system. Otherwise, the same protocol and assay buffer as in the main SPA assay were applied (25 mM HEPES pH=7.5, 150 mM KCl, 2 mM MgCl2, 2 mM GSH, 0.01% Tween-20) and instead of enzyme addition, assay buffer was added. Hydrolysis of substrate (γ-[^33P]-ATP, 0.1 nM; Hartmann Analytic, FF-301; and cold ATP, 10 μM) to a similar level as under enzymatic conditions was achieved by incubation at 50° C. for 4 days. Decay of [^33P] with a half-life of 25.4 days was corrected by increasing the concentration of the labelled nucleotide with the appropriate factor; all steps with radioactive ATP were conducted behind appropriate shielding. After addition of pre-treated ATP substrate (10 μL) to the compounds and addition of buffer (10 μL, instead of enzyme), 20 μL of a 1:2 mix of ammonium molybdate (20 mg/mL Ammonium molybdate in 2.4M HCl) and SPA beads (ProteinA SPA beads from Perkin Elmer Cat #RPNQ0019 at 7.5 mg/mL+1% azide) was added per well and incubated at RT for 2 min. Then, 40 μL of 7 M CsCl and 0.1 M citrate was added per well and incubated for 1 h at room temperature before measuring on the MicroBeta (top read mode, 1 min per well). For full plate processing, all reagents were transferred with a pipettor (Selma, CyBio) apart from the final reagent (CsCl+citrate) which was added with a dispenser (MultiFlo, BioTek). Data analysis during assay development was done with Prism GraphPad, and IC50 fitting for whole compound plates was done with the in-house software Aplus.

[2] = biological target: T1, human MutSbeta (Homo sapiens, UniProt P20585+P43246); experiment: ADP Glo assay 2.1; assay type: biochemical; conditions: 10 μM ATP, 7 nM enzyme; buffer with 5 mM GSH, 0.2% Ovalbumin
T1 construct: Msh2(1-934), Gene ID NP_000242.1; Msh3(1-1137), Gene ID J04810.1
T1 sequence (P43246 whole entry): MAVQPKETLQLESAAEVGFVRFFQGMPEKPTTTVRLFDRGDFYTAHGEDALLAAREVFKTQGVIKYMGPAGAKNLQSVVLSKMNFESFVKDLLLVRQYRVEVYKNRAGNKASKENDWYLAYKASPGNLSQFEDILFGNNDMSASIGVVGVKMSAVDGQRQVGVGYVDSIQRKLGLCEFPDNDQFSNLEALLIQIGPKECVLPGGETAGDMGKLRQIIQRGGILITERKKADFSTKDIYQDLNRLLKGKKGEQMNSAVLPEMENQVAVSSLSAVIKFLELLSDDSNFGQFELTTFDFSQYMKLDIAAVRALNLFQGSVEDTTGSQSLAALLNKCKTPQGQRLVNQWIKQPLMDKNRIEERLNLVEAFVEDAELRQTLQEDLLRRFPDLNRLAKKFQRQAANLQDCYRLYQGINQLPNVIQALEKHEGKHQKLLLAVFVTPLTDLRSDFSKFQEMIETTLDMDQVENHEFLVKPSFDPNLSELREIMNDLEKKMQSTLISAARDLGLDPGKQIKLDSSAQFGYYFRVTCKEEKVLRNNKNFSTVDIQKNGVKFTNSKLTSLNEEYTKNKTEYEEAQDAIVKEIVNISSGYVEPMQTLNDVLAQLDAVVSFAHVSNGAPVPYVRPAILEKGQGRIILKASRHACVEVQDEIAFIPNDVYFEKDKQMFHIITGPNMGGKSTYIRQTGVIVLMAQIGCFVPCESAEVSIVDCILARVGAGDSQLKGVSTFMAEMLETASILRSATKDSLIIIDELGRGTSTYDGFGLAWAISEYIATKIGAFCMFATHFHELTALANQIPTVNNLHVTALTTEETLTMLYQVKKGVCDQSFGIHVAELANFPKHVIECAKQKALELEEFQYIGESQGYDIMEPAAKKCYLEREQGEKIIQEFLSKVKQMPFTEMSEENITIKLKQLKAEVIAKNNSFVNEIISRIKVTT
T1 sequence (P20585 whole entry): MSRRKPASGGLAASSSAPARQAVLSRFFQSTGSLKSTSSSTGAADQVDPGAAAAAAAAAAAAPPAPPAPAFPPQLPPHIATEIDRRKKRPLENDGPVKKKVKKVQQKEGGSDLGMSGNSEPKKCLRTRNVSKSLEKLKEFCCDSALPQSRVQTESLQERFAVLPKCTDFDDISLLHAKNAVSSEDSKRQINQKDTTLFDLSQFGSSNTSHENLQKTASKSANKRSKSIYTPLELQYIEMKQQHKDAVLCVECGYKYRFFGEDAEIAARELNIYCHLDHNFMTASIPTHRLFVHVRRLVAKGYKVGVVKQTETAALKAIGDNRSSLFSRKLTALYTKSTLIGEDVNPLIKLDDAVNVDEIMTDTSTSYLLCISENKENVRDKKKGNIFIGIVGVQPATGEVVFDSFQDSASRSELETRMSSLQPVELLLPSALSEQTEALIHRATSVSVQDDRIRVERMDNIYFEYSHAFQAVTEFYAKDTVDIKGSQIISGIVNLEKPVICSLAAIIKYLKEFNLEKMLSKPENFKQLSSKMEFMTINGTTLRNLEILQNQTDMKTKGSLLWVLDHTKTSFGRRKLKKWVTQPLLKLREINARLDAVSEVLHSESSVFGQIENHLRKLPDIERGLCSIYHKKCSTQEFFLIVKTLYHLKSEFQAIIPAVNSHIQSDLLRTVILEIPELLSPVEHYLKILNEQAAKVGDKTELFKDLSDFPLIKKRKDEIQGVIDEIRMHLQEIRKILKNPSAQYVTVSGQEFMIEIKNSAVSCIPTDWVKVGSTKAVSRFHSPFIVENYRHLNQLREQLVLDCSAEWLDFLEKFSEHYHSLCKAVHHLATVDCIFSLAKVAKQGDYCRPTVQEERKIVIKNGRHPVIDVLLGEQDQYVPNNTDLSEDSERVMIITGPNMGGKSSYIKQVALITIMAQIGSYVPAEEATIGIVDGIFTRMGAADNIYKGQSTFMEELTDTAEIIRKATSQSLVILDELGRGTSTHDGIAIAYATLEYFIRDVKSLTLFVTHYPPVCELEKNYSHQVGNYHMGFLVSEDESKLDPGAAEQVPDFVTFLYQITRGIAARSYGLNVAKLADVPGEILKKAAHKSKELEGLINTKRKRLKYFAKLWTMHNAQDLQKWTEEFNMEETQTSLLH
Method: (§1) ADP Glo assay 2.1: Enzyme human MutSbeta (Msh2(1-934), Gene ID NP_000242.1, Msh3(1-1137), Gene ID J04810.1) with 22 bp biotin-labeled DNA containing a GT-mismatch (purchased from Curia Global, TOP 5′-[…]-3′; BOT 3′-AGTAGCTAGGC - - - CGAAGTCTACC-5′-Biotin) was pre-incubated in assay buffer (25 mM HEPES pH=7.5, 150 mM KCl, 5 mM MgCl2, 5 mM GSH, 0.1% Pluronic F-127, 0.2% Ovalbumin) to allow formation of the enzyme-DNA complex. Plates with spotted compounds in serial dilutions in DMSO (80 nL) were filled with ATP (2 μL, 10 μM final concentration) followed by an incubation of 30 min at RT. Then, enzyme was added (2 μL, 7 nM final concentration) and the reaction was allowed to proceed for 60 min at 37° C. After the ATPase reaction, the commercially available “ADP-Glo Reagent” was added (incubate 40 min at RT) to deplete remaining ATP via the activity of […]. Subsequently, the commercially available “Kinase Detection Reagent” converted ADP to ATP via the activity of PEP and Pyruvate kinase. The ATP was then converted into light by Ultra-Glo Luciferase. The obtained luminescence was proportional to the ADP concentration generated during the initial ATPase reaction. The luminescence signal was measured with an Envision reader, raw data were analyzed towards controls (full reaction=0% inhibition; no reaction in absence of enzyme=100% inhibition) and IC50 curves were analyzed with the inhouse software Aplus.

[3] = biological target: T1, human MutSbeta; experiment: ADP Glo assay 1.1; assay type: biochemical; conditions: SPA buffer, no Ovalbumin; enzyme added to compounds before ATP; read-out: ADP Gol 1.1 assay IC50
Method: as §1
ADP Glo assay 1.1: The ADP Glo 2.1 assay was adapted to enable assessment of a more direct interaction of the compound with the enzyme: (1) the SPA buffer was applied (25 mM HEPES pH=7.5, 150 mM KCl, 2 mM MgCl2, 2 mM GSH, 0.01% Tween-20) which contained no decoy Ovalbumin protein. (2) The order of reagent addition was changed, and enzyme was now added directly to the spotted compounds before addition of ATP.

[4] = biological target: T2, human MutSα (Homo sapiens, UniProt P43246+P52701); experiment: ADP Glo assay with MutSα (2.1); assay type: biochemical; conditions: 15 nM MutSα/DNA, 30 μM ATP
T2 construct: Msh2(1-934), Gene ID NP_000242.1; Msh6(1-1360), Gene ID NP_001393725.1
T2 sequence (P43246 whole entry): as the sequence (P43246 whole entry) above
T2 sequence (P52701 whole entry): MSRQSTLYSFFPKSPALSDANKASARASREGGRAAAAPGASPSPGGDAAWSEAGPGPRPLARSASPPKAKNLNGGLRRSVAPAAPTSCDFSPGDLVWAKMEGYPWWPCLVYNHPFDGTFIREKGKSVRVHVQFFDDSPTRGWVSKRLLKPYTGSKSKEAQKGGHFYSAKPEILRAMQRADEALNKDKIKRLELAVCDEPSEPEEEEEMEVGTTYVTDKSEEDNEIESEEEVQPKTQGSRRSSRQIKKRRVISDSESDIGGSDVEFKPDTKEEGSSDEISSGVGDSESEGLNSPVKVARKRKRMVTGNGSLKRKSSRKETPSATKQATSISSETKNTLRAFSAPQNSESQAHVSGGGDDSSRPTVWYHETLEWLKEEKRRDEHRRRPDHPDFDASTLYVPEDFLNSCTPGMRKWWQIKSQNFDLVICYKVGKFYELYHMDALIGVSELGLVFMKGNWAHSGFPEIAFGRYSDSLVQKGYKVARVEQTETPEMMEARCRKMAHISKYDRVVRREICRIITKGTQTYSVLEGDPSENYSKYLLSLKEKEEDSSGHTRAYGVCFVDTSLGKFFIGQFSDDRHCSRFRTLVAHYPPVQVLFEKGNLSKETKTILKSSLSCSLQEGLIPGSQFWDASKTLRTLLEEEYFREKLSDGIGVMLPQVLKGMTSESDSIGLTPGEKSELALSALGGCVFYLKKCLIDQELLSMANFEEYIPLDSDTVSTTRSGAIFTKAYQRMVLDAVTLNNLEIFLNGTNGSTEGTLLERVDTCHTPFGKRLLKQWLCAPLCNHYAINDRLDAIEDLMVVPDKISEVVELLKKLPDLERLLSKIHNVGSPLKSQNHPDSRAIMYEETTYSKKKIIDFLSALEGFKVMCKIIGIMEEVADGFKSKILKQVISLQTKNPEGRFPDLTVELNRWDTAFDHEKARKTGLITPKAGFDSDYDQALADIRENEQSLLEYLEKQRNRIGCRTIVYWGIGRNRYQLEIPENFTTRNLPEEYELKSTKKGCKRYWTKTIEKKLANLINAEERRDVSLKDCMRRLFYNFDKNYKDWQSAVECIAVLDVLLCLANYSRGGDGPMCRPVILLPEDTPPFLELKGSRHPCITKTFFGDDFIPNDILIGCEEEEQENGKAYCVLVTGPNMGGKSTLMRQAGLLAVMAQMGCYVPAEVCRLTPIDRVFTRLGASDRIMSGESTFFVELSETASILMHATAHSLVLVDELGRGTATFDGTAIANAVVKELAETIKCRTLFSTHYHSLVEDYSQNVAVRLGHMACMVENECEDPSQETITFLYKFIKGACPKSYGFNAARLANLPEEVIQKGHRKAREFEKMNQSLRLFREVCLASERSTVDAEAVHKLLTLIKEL
Method: as §1
ADP Glo assay with MutSα (2.1): The ADP Glo assay version 2.1 with the enzyme human MutSα (Msh2(1-934), Gene ID NP_000242.1, Msh6(1-1360), Gene ID NP_001393725.1) was based on the same principle and protocol steps as the MutSβ assay. A 22 bp biotin-labeled DNA containing a GT-mismatch (purchased from Curia Global, TOP 5′-[…]-3′; BOT 3′-AGTAGCTAGGC - - - CGAAGTCTACC-5′-Biotin) was used for binding to MutSα. For this assay, concentrations of enzyme and ATP were optimized to 15 nM MutSα/DNA and 30 μM ATP.

`Cc1ccc(Nc2nc(N3CCN(C)CC3)nc3nccnc23)cc1C` [Compound 2, N-(3,4-dimethylphenyl)-2-(4-methylpiperazin-1-yl)pteridin-4-amine] gave an IC50 [1] greater than 200 µM, an IC50 [2] of 67.3 µM and an IC50 [3] of 54.8 µM. The IC50 [4] was 135 µM.

In the case of `CCN1CCN(c2nc(Nc3ccc(Cl)cc3)c3nccnc3n2)CC1` [Compound 4, N-(4-Chlorophenyl)-2-(4-ethylpiperazin-1-yl)pteridin-4-amine], the IC50 [1] is reported as greater than 200 µM, the IC50 [2] is reported as 152 µM and the IC50 [3] is reported as 64.3 µM. For the same compound, the IC50 [4] was 121 µM.
